Laboratory results from article PMC12490239, “Combining BET inhibition with SMAC mimetics restricts tumor growth and triggers immune surveillance in preclinical cancer models” (Cell Reports Medicine, 2025).

What was measured:
Test in all cases: cells
Parameters in all cases: CellTiter-Glo 2.0 luminescence proliferation/viability assay, single agents, human tumour cell line panel
[1] = tested on: NCI-H441; conditions: Homo sapiens, NCI-H441, 96 h; single agent; read-out: IC50 SMACm
Outline: (§1)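 Human tumour cell lines were seeded into assay plates and held at 37°C with 5% CO2 for twenty-four hours, then exposed in triplicate to rising concentrations of the SMAC mimetic, from 4.5 nM to 10 μM, with DMSO as control. After 96 h, viability was read as CellTiter-Glo2.0 luminescence to derive single-agent IC50 values.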

[2] = tested on: SUIT-2; conditions: SUIT-2, 96 h; single agent; read-out: IC50 SMACm
Outline: as §1

[3] = tested on: GSU; conditions: 96 h; single agent; read-out: IC50 SMACm
Outline: as §1

[4] = tested on: RKO; conditions: Homo sapiens, RKO, 96 h; single agent; read-out: IC50 SMACm
Outline: as §1

[5] = tested on: IM-95; conditions: Homo sapiens, IM95, 96 h; single agent; read-out: IC50 SMACm
Outline: as §1

[6] = tested on: HT-29; conditions: Homo sapiens, HT-29, 96 h; single agent; read-out: IC50 SMACm
Outline: as §1

[7] = tested on: SW480; conditions: Homo sapiens, SW480, 96 h; single agent; read-out: IC50 SMACm
Outline: as §1

[8] = tested on: KE-39; conditions: 96 h; single agent; read-out: IC50 SMACm
Outline: as §1

[9] = tested on: KM20; conditions: 96 h; single agent; read-out: IC50 SMACm
Outline: as §1

[10] = tested on: LIM2550; conditions: 96 h; single agent; read-out: IC50 SMACm
Outline: as §1

[11] = tested on: SW900; conditions: Homo sapiens, SW900, 96 h; single agent; read-out: IC50 SMACm
Outline: as §1

[12] = tested on: CCK81; conditions: 96 h; single agent; read-out: IC50 SMACm
Outline: as §1

[13] = tested on: NCI-H1975; conditions: Homo sapiens, NCI-H1975, 96 h; single agent; read-out: IC50 SMACm
Outline: as §1

[14] = tested on: COLO-741; conditions: Homo sapiens, COLO-741, 96 h; single agent; read-out: IC50 SMACm
Outline: as §1

[15] = tested on: NCI-H1838; conditions: Homo sapiens, NCI-H1838, 96 h; single agent; read-out: IC50 SMACm
Outline: as §1

- IC50 [1]: 6.13 µM
- IC50 [6]: 4.24 µM
- IC50 [7]: 5.81 µM
- IC50 [11]: 1.78 µM
- IC50 [13]: 4.63 µM
- IC50 [14]: 0.831 µM
- IC50 [15]: 4.25 µM
SMILES: CN[C@@H](C)C(=O)Nc1ccc(-c2c(-c3cccnc3OC)nc3cc(C)ccn23)c(C#Cc2ccc3c(C)nccc3c2)n1 [SMACm, BI 891065]
- IC50 [2]: 4.77 µM
- IC50 [3]: 5.68 µM
- IC50 [4]: 5.07 µM
- IC50 [5]: 1.24 µM
- IC50 [8]: 3.86 µM
- IC50 [9]: 5.04 µM
- IC50 [10]: 2.08 µM
- IC50 [12]: 7.34 µM
